# Laboratory results reported in patent US20060280820A1, “Use of an extract of Aloysia/Verbena/Lippia triphylla/citriodora for the treatment of chronic and/or inflammatory diseases” (priority 2003, published 2006).
# Assay: Degradation of glycosaminoglycanes by reactive oxygen species (FIG. 2)
# Assay type: biochemical
# Conditions: free ferrous ions and hydrogen peroxide; pH value 7.2, 37 degrees Celsius
smiles,measurement,value
O=C1O[C@H]([C@@H](O)CO)C(O)=C1O [vitamin C],degradation of glycosaminoglycanes by reactive oxygen species,enhances the degradation of glycosaminoglycanes
